{"source": "patent US20150238447A1", "about": "“BETA-HYDROXY-BETA-METHYLBUTRYIC ACID-CONTAINING COMPOSITIONS AND USES THEREOF” (ABBOTT LABORATORIES, priority 2012, published 2015)", "system": "mice fed a high fat diet", "experiment": "motor (exploratory) activity in activity monitoring chamber, Opto-Varimex 4", "assay_type": "in vivo", "conditions": "high fat diet plus Ca-HMB (170 or 340 mg/kg of drinking water) compared to high fat diet alone; 30 minutes observation", "experimental": "The mice arrived at the facility at 21 days post birth and were divided into 6 groups after a seven day quarantine. There were 5 animals each. […] were placed on the following diets:\nGroup 1: High Fat Diet alone;\nGroup 2: High Fat Diet plus 500 mg of leucine/kg of drinking water;\nGroup 3: High Fat Diet plus 1000 mg of leucine/kg of drinking water;\nGroup 4: High Fat Diet plus 170 mg of Ca-HMB/kg of drinking water;\nGroup 5: High Fat Diet plus 340 mg of Ca-HMB/kg of drinking water; and\nOne week before the initiation of the study, the animals were acclimatized in the activity monitoring chamber, daily for half an hour. On the day of experiment, each set of animals were placed in the activity monitoring chamber (chamber 1 to 5) for half an hour. Motor activity of the mice in each group was monitored using the Actometry Apparatus: “Opto-Varimex 4” Auto-track system, Model No: 0271-004M. The motor activity of each mouse was monitored once in a week between 8:30 AM and 12:00 PM for 30 minutes. Six sets of “half an hour observations” were made for each of the 30 animals. The software captured motor activity parameters while the animals were in the activity monitoring chamber."}
{"smiles": "CC(C)(O)CC(=O)O", "note": "[HMB, beta-hydroxy-beta-methylbutyric acid]", "values": [{"measurement": "exploratory activity", "result": "enhanced exploratory activity"}]}
